Measurements reported in PubChem BioAssay (NCI).
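Dose response: 5 concentrations. Exposure: 48 h. Format: 96-well plates. Endpoint: linear interpolation; highest concentration if not reached. TGI: total growth inhibition.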

Legend:
Test in all cases: growth of human tumour cells (NCI), 48 h
PC-3 prostate = tested on: PC-3 prostate
HCT-116 colon = tested on: HCT-116 colon
MDA-N = tested on: MDA-N
K-562 leukemia = tested on: K-562 leukemia
SNB-19 CNS = tested on: SNB-19 CNS
HCT-15 colon = tested on: HCT-15 colon
RPMI-8226 leukemia = tested on: RPMI-8226 leukemia
OVCAR-3 ovarian = tested on: OVCAR-3 ovarian
SW-620 colon = tested on: SW-620 colon
SK-MEL-5 melanoma = tested on: SK-MEL-5 melanoma
LOX IMVI melanoma = tested on: LOX IMVI melanoma
DU-145 prostate = tested on: DU-145 prostate
A498 renal = tested on: A498 renal
SF-268 CNS = tested on: SF-268 CNS
ACHN renal = tested on: ACHN renal
MCF7 breast = tested on: MCF7 breast
UACC-62 melanoma = tested on: UACC-62 melanoma
HS 578T breast = tested on: HS 578T breast
A549 NSCLC = tested on: A549 NSCLC
SN12C renal = tested on: SN12C renal
NCI-H522 lung = tested on: NCI-H522 lung
MDA-MB-435 = tested on: MDA-MB-435
OVCAR-8 ovarian = tested on: OVCAR-8 ovarian
UO-31 renal = tested on: UO-31 renal
786-0 renal = tested on: 786-0 renal
U251 CNS = tested on: U251 CNS
SNB-75 CNS = tested on: SNB-75 CNS
IGROV1 ovarian = tested on: IGROV1 ovarian
NCI-H23 lung = tested on: NCI-H23 lung
COLO 205 colon = tested on: COLO 205 colon
SK-MEL-2 melanoma = tested on: SK-MEL-2 melanoma
SF-295 CNS = tested on: SF-295 CNS
EKVX NSCLC = tested on: EKVX NSCLC
NCI-H226 lung = tested on: NCI-H226 lung
HOP-92 NSCLC = tested on: HOP-92 NSCLC
MDA-MB-231 breast = tested on: MDA-MB-231 breast
HT29 colon = tested on: HT29 colon
MALME-3M melanoma = tested on: MALME-3M melanoma
KM12 colon = tested on: KM12 colon
TK-10 renal = tested on: TK-10 renal
HOP-62 NSCLC = tested on: HOP-62 NSCLC
M14 melanoma = tested on: M14 melanoma
MOLT-4 leukemia = tested on: MOLT-4 leukemia
SR leukemia = tested on: SR leukemia
OVCAR-5 ovarian = tested on: OVCAR-5 ovarian
SK-OV-3 ovarian = tested on: SK-OV-3 ovarian
SK-MEL-28 melanoma = tested on: SK-MEL-28 melanoma

**Q.** Which results are given for `CN(C)c1ccc(C=C2C(=O)N(c3ccccc3)N(c3ccccc3)C2=O)cc1`?
**A.** TGI (PC-3 prostate): > 100 µM; TGI (HCT-116 colon): > 100 µM; TGI (MDA-N): > 100 µM; TGI (K-562 leukemia): > 100 µM; TGI (SNB-19 CNS): > 100 µM; TGI (HCT-15 colon): > 100 µM; TGI (RPMI-8226 leukemia): > 100 µM; TGI (OVCAR-3 ovarian): > 100 µM; TGI (SW-620 colon): > 100 µM; TGI (SK-MEL-5 melanoma): > 100 µM; TGI (LOX IMVI melanoma): > 100 µM; TGI (DU-145 prostate): > 100 µM; TGI (A498 renal): > 100 µM; TGI (SF-268 CNS): > 100 µM; TGI (ACHN renal): > 100 µM; TGI (MCF7 breast): > 100 µM; TGI (UACC-62 melanoma): > 100 µM; TGI (HS 578T breast): > 100 µM; TGI (A549 NSCLC): > 100 µM; TGI (SN12C renal): > 100 µM; TGI (NCI-H522 lung): > 100 µM; TGI (MDA-MB-435): > 100 µM; TGI (OVCAR-8 ovarian): > 100 µM; TGI (UO-31 renal): > 100 µM; TGI (786-0 renal): > 100 µM; TGI (U251 CNS): > 100 µM; TGI (SNB-75 CNS): > 100 µM; TGI (IGROV1 ovarian): > 100 µM; TGI (NCI-H23 lung): > 100 µM; TGI (COLO 205 colon): > 100 µM; TGI (SK-MEL-2 melanoma): > 100 µM; TGI (SF-295 CNS): > 100 µM; TGI (EKVX NSCLC): > 100 µM; TGI (NCI-H226 lung): > 100 µM; TGI (HOP-92 NSCLC): 65.1 µM; TGI (MDA-MB-231 breast): > 100 µM; TGI (HT29 colon): > 100 µM; TGI (MALME-3M melanoma): > 100 µM; TGI (KM12 colon): > 100 µM; TGI (TK-10 renal): > 100 µM; TGI (HOP-62 NSCLC): > 100 µM; TGI (M14 melanoma): > 100 µM; TGI (MOLT-4 leukemia): > 100 µM; TGI (SR leukemia): > 100 µM; TGI (OVCAR-5 ovarian): > 100 µM; TGI (SK-OV-3 ovarian): > 100 µM; TGI (SK-MEL-28 melanoma): > 100 µM
